In patent publication US12257243B2, “5-hydroxy-7-oxabicyclo[2.2.1]heptane-2-carboxamide derivatives for inducing chondrogenesis for treating joint damage” (NOVARTIS AG, priority 2018, dated 2025):
Read-outs that look alike come from different tables or passages of the source.

System: ALP in normal human articular chondrocytes (NHACs)
Assay: Alkaline Phosphatase (ALP) activity assay (staining and quantitation) in NHACs, prevention of chondrocyte hypertrophy
Format: cell-based
Conditions: human IL-1 beta 10 ng/mL, 12 days; for IC50: Fast Blue RR staining, high content imaging, read-out: ALP in NHAC IC50; for Emax / ALP in NHAC (% Efficacy): value in parentheses; for Emax: read-out: ALP in NHAC (% Efficacy)
In short: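 Primary human articular chondrocytes plated at 7,500 cells/well in DMEM with 10% FBS alongside test compound, incubated 5 h at 37 °C, then given IL-1β (10 ng/mL final) for 12 days. Fixed cells stained for ALP with Fast Blue RR/naphthol AS-MX, Hoechst counterstain. Read by fluorescence imaging (561 nm) and/or high-content cell scoring.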

Compound `Cn1cc([C@H]2[C@H]3O[C@H](C[C@@H]3O)[C@@H]2C(=O)Nc2ccc(F)c(C(F)(F)F)c2)c(C(F)(F)F)n1` (racemic) [Example 43] has an IC50 (Chondrocyte, 288 h) of 7.9 µM and an Emax (Chondrocyte, 288 h) of 59%.

Compound `Cc1cc(NC(=O)[C@@H]2[C@@H](c3cccc(C(F)(F)F)c3)[C@H]3O[C@@H]2C[C@@H]3O)cc(C(F)(F)F)c1` (racemic) [Example 13, rac-(1R,2R,3S,4R,5S)-5-hydroxy-N-(3-methyl-5-(trifluoromethyl)phenyl)-3-(3-(trifluoromethyl)phenyl)-7-oxabicyclo[2.2.1]heptane-2-carboxamide] has an IC50 (Chondrocyte, 288 h) of 11 µM and an Emax (Chondrocyte, 288 h) of 105%.

In the case of `Cn1cc([C@H]2[C@H]3O[C@H](C[C@@H]3O)[C@@H]2C(=O)Nc2ccc(C#N)c(C(F)(F)F)c2)c(C(F)(F)F)n1` (racemic) [Example 51, rac-(1R,2R,3S,4R,5S)—N-(4-cyano-3-(trifluoromethyl)phenyl)-5-hydroxy-3-(1-methyl-3-(trifluoromethyl-1H-pyrazol-4-yl)-7-oxabicyclo[2.2.1]heptane-2-carboxamide], the IC50 (Chondrocyte, 288 h) is reported as over 30 µM and the Emax (Chondrocyte, 288 h) is reported as 34%.

Work on `O=C(Nc1cccc(C(F)(F)F)c1F)[C@@H]1[C@@H](c2cccc(C(F)(F)F)c2)[C@H]2O[C@@H]1C[C@@H]2O` (racemic) [Example 15, rac-(1R,2R,3S,4R,5S)—N-(2-fluoro-3-(trifluoromethyl)phenyl)-5-hydroxy-3-(3-(trifluoromethyl)phenyl)-7-oxabicyclo[2.2.1]heptane-2-carboxamide] yielded an IC50 (Chondrocyte, 288 h) of 7 µM and an Emax (Chondrocyte, 288 h) of 105%.

`CCOc1ccc(NC(=O)[C@@H]2[C@@H](c3cn(C)nc3C(F)(F)F)[C@H]3O[C@@H]2C[C@@H]3O)cc1C(F)(F)F` (racemic) [Example 44, rac-(1R,2R,3S,4R,5S)—N-(4-ethoxy-3-(trifluormethyl)phenyl)-5-hydroxy-3-(1-methyl-3-(trifluoromethyl)-1H-pyrazol-4-yl)-7-oxabicyclo[2.2.1]heptane-2-carboxamide] showed an IC50 (Chondrocyte, 288 h) of 14 µM and an Emax (Chondrocyte, 288 h) of 89%.

`O=C(Nc1ccc(N2CCOCC2)c(C(F)(F)F)c1)[C@@H]1[C@@H](c2cccc(C(F)(F)F)c2)[C@H]2O[C@@H]1C[C@@H]2O` (racemic) [Example 23, rac-(1R,2R,3S,4R,5S)-5-hydroxy-N-(4-morpholino-3-(trifluoromethyl)phenyl)-3-(3-(trifluoromethyl)phenyl)-7-oxabicyclo[2.2.1]heptane-2-carboxamide] was tested, and the IC50 (Chondrocyte, 288 h) was 17 µM and the Emax (Chondrocyte, 288 h) was 108%.

With `COc1cc([C@H]2[C@H]3O[C@H](C[C@@H]3O)[C@@H]2C(=O)Nc2ccc(C(F)(F)F)c(Cl)c2)ccn1` (racemic) [Example 79, rac-(1R,2R,3S,4R,5S)—N-(3-chloro-4-trifluoromethyl)phenyl)-5-hydroxy-3-(2-methoxypyridin-4-yl)-7-oxabicyclo[2.2.1]heptane-2-carboxamide] the IC50 (Chondrocyte, 288 h) was 12 µM and the Emax (Chondrocyte, 288 h) was 75%.

Compound `Cn1cc([C@H]2[C@H]3O[C@H](C[C@@H]3O)[C@@H]2C(=O)Nc2cc(C(F)(F)F)cc(C(F)(F)F)c2)c(C(F)(F)F)n1` (racemic) [Example 50, rac-(1R,2R,3S,4R,5S)—N-(3,5-bis(trifluoromethyl)phenyl)-5-hydroxy-3-(1-methyl-3-(trifluoromethyl)-1H-pyrazol-4-yl)-7-oxabicyclo[2.2.1]heptane-2-carboxamide] has an IC50 (Chondrocyte, 288 h) of 2.3 µM and an Emax (Chondrocyte, 288 h) of 101%.

In the case of `COc1ccc(C(F)(F)F)cc1NC(=O)[C@@H]1[C@@H](c2cccc(C(F)(F)F)c2)[C@H]2O[C@@H]1C[C@@H]2O` (racemic) [Example 22, rac-(1R,2R,3S,4R,5S)-5-hydroxy-N-(2-methoxy-5-(trifluoromethyl)phenyl-3-(3-(trifluoromethyl)phenyl)-7-oxabicyclo[2.2.1]heptane-2-carboxamide], the IC50 (Chondrocyte, 288 h) is reported as 27 µM and the Emax (Chondrocyte, 288 h) is reported as 75%.

For `Cn1cc([C@H]2[C@H]3O[C@H](C[C@@H]3O)[C@@H]2C(=O)Nc2cc(C(F)(F)F)cc(Cl)n2)c(C(F)(F)F)n1` (racemic) [Example 35, rac-(1R,2R,3S,4R,5S)—N-(6-chloro-4-(trifluoromethyl)pyridin-2-yl)-5-hydroxy-3-(1-methyl-3-(trifluoromethyl)-1H-pyrazol-4-yl)-7-oxabicyclo[2.2.1]heptane-2-carboxamide], the IC50 (Chondrocyte, 288 h) was 9.8 µM and the Emax (Chondrocyte, 288 h) was 83%.

`N#Cc1ccc(NC(=O)[C@@H]2[C@@H](c3cccc(C(F)(F)F)c3)[C@H]3O[C@@H]2C[C@@H]3O)cc1C(F)(F)F` (racemic) [Example 46, rac-(1R,2R,3S,4R,5S)—N-(4-cyano-3-trifluoromethyl)phenyl)-5-hydroxy-3-(3-(trifluoromethyl)phenyl)-7-oxabicyclo[2.2.1]heptane-2-carboxamide] showed an IC50 (Chondrocyte, 288 h) of 14 µM and an Emax (Chondrocyte, 288 h) of 50%.

Work on `COc1ccc(NC(=O)[C@@H]2[C@@H](c3cccc(C(F)(F)F)c3)[C@H]3O[C@@H]2C[C@@H]3O)cc1C(F)(F)F` (racemic) [Example 20, rac-(1R,2R,3S,4R,5S)-5-hydroxy-N-(4-methoxy-3-trifluoromethyl)phenyl)-3-(3-(trifluoromethyl)phenyl)-7-oxabicyclo[2.2.1]heptane-2-carboxamide] yielded an IC50 (Chondrocyte, 288 h) of 14 µM and an Emax (Chondrocyte, 288 h) of 102%.

`Cn1cc([C@H]2[C@H]3O[C@H](C[C@@H]3O)[C@@H]2C(=O)Nc2ccc(N3CCOCC3)c(C(F)(F)F)c2)c(C(F)(F)F)n1` (racemic) [Example 37, rac-(1R,2R,3S,4R,5S)-5-hydroxy-3-(1-methyl-3-(trifluoromethyl)-1H-pyrazol-4-yl)-N-(4-morpholino-3-(trifluoromethyl)phenyl)-7-oxabicyclo[2.2.1]heptane-2-carboxamide] showed an IC50 (Chondrocyte, 288 h) of over 30 µM and an Emax (Chondrocyte, 288 h) of 45%.

Compound `CC(C)n1cc([C@H]2[C@H]3O[C@H](C[C@@H]3O)[C@@H]2C(=O)Nc2cc(C(F)(F)F)ccc2C#N)c(C(F)(F)F)n1` (racemic) [Example 84, rac-(1R,2R,3S,4R,5S)—N-(2-cyano-5-(trifluoromethyl)phenyl)-5-hydroxy-3-(1-isopropyl-3-(trifluoromethyl)-1H-pyrazol-4-yl)-7-oxabicyclo[2.2.1]heptane-2-carboxamide] has an IC50 (Chondrocyte, 288 h) of 0.29 µM and an Emax (Chondrocyte, 288 h) of 86%.

For `COc1cc([C@H]2[C@H]3O[C@H](C[C@@H]3O)[C@@H]2C(=O)Nc2ccc(C)c(C(F)(F)F)c2)ccn1` (racemic) [Example 68, rac-(1R,2R,3,4R,5S)-5-hydroxy-3-(2-methoxypyridin-4-yl)-N-(4-methyl-3-(trifluoromethyl)phenyl)-7-oxabicyclo[2.2.1]heptane-2-carboxamide], the IC50 (Chondrocyte, 288 h) was over 30 µM and the Emax (Chondrocyte, 288 h) was 31%.

Work on `O=C(Nc1cc(C(F)(F)F)ccn1)[C@@H]1[C@@H](c2cccc(C(F)(F)F)c2)[C@H]2O[C@@H]1C[C@@H]2O` (racemic) [Example 4, rac-(1R,2R,3S,4R,5S)-5-hydroxy-3-(3-trifluoromethyl)phenyl)-N-(4-(trifluoromethyl)pyridin-2-yl)-7-oxabicyclo[2.2.1]heptane-2-carboxamide] yielded an IC50 (Chondrocyte, 288 h) of 7.1 µM and an Emax (Chondrocyte, 288 h) of 90%.

For `O=C(Nc1ccc(C(F)(F)F)c(Cl)n1)[C@@H]1[C@@H](c2cccc(C(F)(F)F)c2)[C@H]2O[C@@H]1C[C@@H]2O` (single isomer, unassigned) [Example 25a, (1R,2R,3S,4R,5S)—N-(6-chloro-5-(trifluoromethyl)pyridin-2-yl)-5-hydroxy-3-(3-(trifluoromethyl)phenyl)-7-oxabicyclo[2.2.1]heptane-2-carboxamide or (1S,2S,3R,4S,5R)—N-(6-chloro-5-(trifluoromethylpyridin-2-yl)-5-hydroxy-3-(3-(trifluoromethyl)phenyl)-7-oxabicyclo[2.2.1]heptane-2-carboxamide], the IC50 was 0.55 µM and the “ALP in NHAC (% Efficacy)” value was 89%.

Compound `O=C(Nc1cc(F)cc(C(F)(F)F)c1)[C@@H]1[C@@H](c2cccc(C(F)(F)F)c2)[C@H]2O[C@@H]1C[C@@H]2O` (racemic) [Example 17, rac-(1R,2R,3S,4R,5S)—N-(3-fluoro-5-(trifluoromethyl)phenyl)-5-hydroxy-3-(3-(trifluoromethyl)phenyl)-7-oxabicyclo[2.2.1]heptane-2-carboxamide] has an IC50 (Chondrocyte, 288 h) of 13 µM and an Emax (Chondrocyte, 288 h) of 105%.

`Cn1cc([C@H]2[C@H]3O[C@H](C[C@@H]3O)[C@@H]2C(=O)Nc2ccc(C(F)(F)F)cc2)c(C(F)(F)F)n1` (racemic) [Example 29, rac-(1R,2R,3S,4R,5S)-5-hydroxy-3-(1-methyl-3-trifluoromethyl)-1H-pyrazol-4-yl)-N-(4-(trifluoromethyl)phenyl)-7-oxabicyclo[2.2.1]heptane-2-carboxamide] showed an IC50 (Chondrocyte, 288 h) of 11 µM and an Emax (Chondrocyte, 288 h) of 72%.

`COc1ccc(C(F)(F)F)cc1NC(=O)[C@H]1[C@H](c2cn(C)nc2C(F)(F)F)[C@@H]2O[C@H]1C[C@H]2O` (single isomer, unassigned) [Example 33b, (1R,2R,3S,4R,5S)-5-hydroxy-N-(2-methoxy-5-trifluoromethyl)phenyl)-3-(1-methyl-3-(trifluoromethyl)-1H-pyrazol-4-L)-7-oxabicyclo[2.2.1]heptane-2-carboxamide or (1S,2S,3R,4S,5R)-5-hydroxy-N-(2-methoxy-5-(trifluoromethyl)phenyl)-3-(1-methyl-3-(trifluoromethyl)-1H-pyrazol-4-L)-7-oxabicyclo[2.2.1]heptane-2-carboxamide] was tested, and the IC50 was 3.1 µM and the “ALP in NHAC (% Efficacy)” value was 99%.

`Cn1cc([C@H]2[C@H]3O[C@H](C[C@@H]3O)[C@@H]2C(=O)Nc2cc(C(F)(F)F)c(Cl)cn2)c(C(F)(F)F)n1` (single isomer, unassigned) [Example 36a, (1R 2R,3S,4R,5S)—N-(5-chloro-4-(trifluoromethyl)pyridin-2-yl)-5-hydroxy-3-(1-methyl-3-(trifluoromethyl)-1H-pyrazol-4-yl)-7-oxabicyclo[2.2.1]heptane-2-carboxamide or (1S,2S,3R,4S,5R)—N-(5-chloro-4-(trifluoromethyl)pyridin-2-yl)-5-hydroxy-3-(1-methyl-3-(trifluoromethyl)-1H-pyrazol-4-yl)-7-oxabicyclo[2.2.1]heptane-2-carboxamide] was tested, and the IC50 was 9.4 µM and the “ALP in NHAC (% Efficacy)” value was 95%.
